In experiment [1] the target is T1, binding between HGF and c-Met (Homo sapiens, UniProt P14210).
T1 construct: purchased R&D Systems
Put plainly: ELISA-like HGF-c-Met binding assay on plate with immobilized recombinant c-Met. To be noted: NC set to 1. Here is the method:
The effect of the addition of glutathione trisulfide (GSSSG) or lipoic acid trisulfide (LA-SSS) on the binding (affinity) between HGF and c-Met was examined by the following method. GSSSG or LA-SSS was added to recombinant HGF (R&D Systems) at a molar ratio of 1:4000 (HGF:GSSSG or HGF:LA-SSS) (FIG. 1(A)) or 1:8000 (HGF:GSSSG or HGF:LA-SSS) (FIG. 1(B)). An ELISA-like HGF-c-Met binding assay was performed using a 96-well cluster plate with immobilized recombinant c-Met (R&D Systems) (Tatsumni et al. 2002; the principle of this method is schematically shown in FIG. 1(C)). Table 2 and FIGS. 1(A) and (B) show the relative values of each experimental group, with the A450-535 nm (absorbance at 450 nm minus absorbance at 535 nm) of the negative control (NC) set to 1.
In Table 2 and FIG. 1, NC: negative control (no addition), PC: positive control (HGF only addition), PC′: addition of solvent used to dissolve GSSSG and HGF, A′: addition of solvent used to dissolve GSSSG, GSSSG, and HGF (1 ng/ml), A: addition of solvent used to dissolve GSSSG and GSSSG, PC″: addition of solvent used to dissolve LA-SSS and HGF, B′: addition of solvent used to dissolve LA-SSS, LA-SSS, and HGF (1 ng/ml), B: addition of solvent used to dissolve LA-SSS and LA-SSS.

Experiment [2] relates to muscle stem cells (satellite cells). As to the kind of experiment: Muscle stem cell (satellite cell) activation by HGF, BrdU pulse labeling. The experiment is classed as cell-based, rat. To be noted: for Percentage of BrdU-positive cells (%): NC 46.9; for percentage of BrdU-positive cells / enhancing effect on muscle stem cell activation by HGF: HGF 3 ng/ml; for percentage of BrdU-positive cells: trisulfide at 4000 or 8000 moles per 1 mole HGF, vs. NC, p<0.05; for enhancing effect on muscle stem cell activation by HGF: trisulfide at 8000 moles per 1 mole HGF. Here is the method:
The effect of the addition of GSSSG or LA-SSS on the muscle stem cell activation effect of HGF (3 ng/ml) was examined by the following method. GSSSG or LA-SSS was added to recombinant HGF (R&D Systems) at a molar ratio of 1:4000 (HGF:GSSSG or HGF:LA-SSS) (FIG. 2(A)) or 1:8000 (HGF:GSSSG or HGF:LA-SSS) (FIG. 2(B)). The activation effect of HGF was measured using a culture system of muscle stem cells (satellite cells). Quiescent muscle stem cells were isolated from the skeletal muscle of 8-9-month-old mature rats in accordance with a modified method of Allen et al. (1997) (Tatsumi et al. 2006), and cultured for 24 hours in DMEM containing 10% normal horse serum (DMEM-10% HS, pH 7.2). HGF mixed with GSSSG or LA-SSS was added to a final concentration of 3 ng/ml, and after further culture for 24 hours, the activation rate of muscle stem cells was measured by the bromodeoxyuridine (BrdU) pulse labeling method. Cells that had incorporated BrdU were visualized with an anti-BrdU monoclonal antibody, and the percentage of positive cells was used as an indicator of muscle stem cell activation (Tatsumi et al. 1998).
In FIG. 2, NC: negative control (no addition), PC: positive control (HGF only addition), A′: addition of GSSSG and HGF (3 ng/ml), A: addition of GSSSG, B′: addition of LA-SSS and HGF (3 ng/ml), B: addition of LA-SSS.
The effect of the addition of GSSSG or LA-SSS on the muscle stem cell activation effect of HGF (1 ng/ml) was examined in the same manner as in Example 2, except that the final concentration of HGF was 1 ng/ml instead of 3 ng/ml.
In Table 3 and FIG. 4, NC: negative control (no addition), PC′: positive control (HGF (I ng/ml) only addition), A′: addition of GSSSG and HGF (I ng/ml), A: addition of GSSSG, B′: addition of LA-SSS and HGF (1 ng/ml), B: addition of LA-SSS, PC: positive control (HGF (3 ng/ml) only addition).

[3] abbreviates: 1:4000 series, trisulfide and its solvent without HGF.
The mark [4] stands for this setting: 1:8000 series, trisulfide and its solvent without HGF.
Where [5] appears, read: HGF:A,B molar ratio 1:4000 series, HGF 1 ng/mL present, PC′/PC″ = HGF plus solvent only.
Setting [6] is: HGF:A,B molar ratio 1:8000 series, HGF 1 ng/mL present, PC′/PC″ = HGF plus solvent only.
[7] abbreviates: HGF 1 ng/ml present, trisulfide at 1:8000 molar ratio, PC′ = HGF 1 ng/ml only.

T1 sequence (P14210 32-494 limits assumed): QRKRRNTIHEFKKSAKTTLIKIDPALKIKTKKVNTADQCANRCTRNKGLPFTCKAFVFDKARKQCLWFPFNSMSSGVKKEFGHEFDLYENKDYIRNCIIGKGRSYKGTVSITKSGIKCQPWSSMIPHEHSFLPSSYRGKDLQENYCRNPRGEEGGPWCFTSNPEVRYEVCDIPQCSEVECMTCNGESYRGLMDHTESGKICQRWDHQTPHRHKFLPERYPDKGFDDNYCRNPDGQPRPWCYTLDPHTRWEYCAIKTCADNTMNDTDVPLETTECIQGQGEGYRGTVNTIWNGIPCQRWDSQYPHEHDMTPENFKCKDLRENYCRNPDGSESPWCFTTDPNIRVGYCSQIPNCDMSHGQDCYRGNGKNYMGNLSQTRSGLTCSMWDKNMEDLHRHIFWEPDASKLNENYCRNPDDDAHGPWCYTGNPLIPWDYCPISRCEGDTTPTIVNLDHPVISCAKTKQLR

For `N[C@@H](CCC(=O)N[C@@H](CSSSC[C@H](NC(=O)CC[C@H](N)C(=O)O)C(=O)NCC(=O)O)C(=O)NCC(=O)O)C(=O)O` [GSSSG, glutathione trisulfide], the “A450-535 um (Relative units) (Average value)” value (“A450-535 um (Relative units)” below) is reported as 1.21 Relative units in experiment [1] (setting [3]); 1.16 Relative units in experiment [1] (setting [4]); “increased” in experiment [1] (setting [5]); 9.67 Relative units in experiment [1] (HGF:A,B molar ratio 1:4000 series, HGF 1 ng/mL present, PC′/PC″ = HGF plus solvent only, listed as A′); “significantly increased” in experiment [1] (setting [6]); 11.22 Relative units in experiment [1] (HGF:A,B molar ratio 1:8000 series, HGF 1 ng/mL present, PC′/PC″ = HGF plus solvent only, listed as A′). For the same compound, the “Percentage of BrdU-positive cells (%)” value was “increased” in experiment [2] (setting [7]); 57.5% in experiment [2] (HGF 1 ng/ml present, trisulfide at 1:8000 molar ratio, PC′ = HGF 1 ng/ml only, listed as A′); 47.5% in experiment [2] (trisulfide alone, without HGF). In experiment [2], the “percentage of BrdU-positive cells” value is “significantly increased”. The “enhancing effect on muscle stem cell activation by HGF” value in experiment [2] was “not observed”.
Regarding `O=C(O)CCCCC1CCSSS1` (stereo not drawn) [LA-SSS, lipoic acid trisulfide], the “A450-535 um (Relative units)” value is on record as 1.28 Relative units in experiment [1] (setting [3]); 1.14 Relative units in experiment [1] (setting [4]); “increased” in experiment [1] (setting [5]); 9.55 Relative units in experiment [1] (HGF:A,B molar ratio 1:4000 series, HGF 1 ng/mL present, PC′/PC″ = HGF plus solvent only, listed as B'); “significantly increased” in experiment [1] (setting [6]); 19.60 Relative units in experiment [1] (HGF:A,B molar ratio 1:8000 series, HGF 1 ng/mL present, PC′/PC″ = HGF plus solvent only, listed as B′). The “Percentage of BrdU-positive cells (%)” value in experiment [2] (setting [7]) is given as “significantly increased”; in experiment [2] (HGF 1 ng/ml present, trisulfide at 1:8000 molar ratio, PC′ = HGF 1 ng/ml only, listed as B′), 64.2%; in experiment [2] (trisulfide alone, without HGF), 48.8%. Besides, the “percentage of BrdU-positive cells” value in experiment [2] was “significantly increased”. In addition, the “enhancing effect on muscle stem cell activation by HGF” value in experiment [2] is on record as “not observed”.
On to “HGF: recombinant hepatocyte growth factor (R&D Systems); positive control, alone or with trisulfide solvent”, for which the “A450-535 um (Relative units)” value in experiment [1] (HGF:A,B molar ratio 1:4000 series, HGF 1 ng/mL present, PC′/PC″ = HGF plus solvent only, listed as PC′) stood at 9.39 Relative units; in experiment [1] (HGF:A,B molar ratio 1:4000 series, HGF 1 ng/mL present, PC′/PC″ = HGF plus solvent only, listed as PC″), 9.00 Relative units; in experiment [1] (HGF:A,B molar ratio 1:8000 series, HGF 1 ng/mL present, PC′/PC″ = HGF plus solvent only, listed as PC′), 10.21 Relative units; in experiment [1] (HGF:A,B molar ratio 1:8000 series, HGF 1 ng/mL present, PC′/PC″ = HGF plus solvent only, listed as PC″) it was 10.04 Relative units; in experiment [1] (positive control, HGF only addition), 9.85 Relative units. Besides, the “Percentage of BrdU-positive cells (%)” value is recorded as “significantly increased” in experiment [2] (setting [7]); 55.3% in experiment [2] (HGF 1 ng/ml present, trisulfide at 1:8000 molar ratio, PC′ = HGF 1 ng/ml only, listed as PC′); 65.9% in experiment [2] (HGF 3 ng/ml only addition).

The values are drawn from patent US20260240836A1, “ENHANCER OF PHYSIOLOGICAL ACTIVITY OF HEPATOCYTE GROWTH FACTOR” (KYOWA HAKKO BIO CO., LTD., priority 2023, published 2026).
